Reference: US20240199597A1, “SMALL MOLECULES FOR THE TREATMENT OF KINASE-RELATED DISEASES” (Athos Therapeutics, Inc., priority 2021, published 2024)

Assays:
HT-29 cells = test: Reduction of colorectal tumor mass, HT-29 xenograft in nude mice; format: in vivo, Male nude mice; settings: 5 mg/kg I.P. every 48 h
Description: Male nude mice ages 6-8 weeks (NU/J. Jackson Laboratories) received rear, hind leg flank subcutaneous injections of 5×10^6 HT-29 cells diluted 1:1 in matrigel-cell culture media. Mice were then monitored daily until tumor nodules reached 100-200 mm^3 upon which point they were randomized into treatment groups based on their weight and tumor size and treatment. Mice (10 mice per group) were injected I.P. every 48 h with 100 μL of either vehicle control or Compound 8 (5 mg/kg). Tumor nodules were then monitored every 48 h for up to 28 days with tumor volumes calculated using the equation V=(L*W2)/2 where L is length and W is width of a tumor. Differences in xenograft volumes between the different groups were analyzed by single factor analysis of variance of the log-transformed tumor volume data. Mice with tumors that exceed 1000 mm^3 were euthanized to avoid excessive suffering.

HCT-116 = test: Cancer cytotoxicity assay (Real-Time-Glo cell viability), HCT-116; format: cell-based; settings: Homo sapiens, colorectal cancer cell line, 72 hr
Description: (§1) The cytotoxicity of Compounds 1, 3, 4, 6, 7, 8, 9, 10, 12 and 13 against cancer cell lines was determined. To determine the optimal plating density for cell viability assays, for each cell line, cells were counted and diluted to final densities of 2.5, 5, 10 and 20 thousand per 100 μL of their respective growth media per well in 96 well plates. The Promega Real-Time-Glo cell viability kit was used to determine the optimal concentration for cell plating so that each cell line would be within the linear part of its growth curve after 72 hrs in culture. For the determination of test compound IC50s, different cancer cell lines were plated in 96 well plates in the pre-determined optimal density for each cell line. Test compounds were then added at different concentrations for the creation of six-point curve and cell density was determined using the Promega Real-Time-Glo cell viability kit after 24, 48, and 72 hrs in culture.

A-498 = test: Cancer cytotoxicity assay (Real-Time-Glo cell viability), A-498; format: cell-based; settings: Homo sapiens, A498; kidney cancer, 72 hr
Description: as §1

SKOV-3 = test: Cancer cytotoxicity assay (Real-Time-Glo cell viability), SKOV-3; format: cell-based; settings: Homo sapiens, SK-OV-3; ovarian cancer cell line, 72 hr
Description: as §1

PLK4 = biological target: T1, PLK4 (Homo sapiens, UniProt O00444); test: Kinase inhibition assay (Eurofins DiscoverX KinaseProfiler / KdElect), PLK4; format: biochemical
T1 construct: purchased Eurofins DiscoverX (contract service)
T1 sequence (O00444 1-970): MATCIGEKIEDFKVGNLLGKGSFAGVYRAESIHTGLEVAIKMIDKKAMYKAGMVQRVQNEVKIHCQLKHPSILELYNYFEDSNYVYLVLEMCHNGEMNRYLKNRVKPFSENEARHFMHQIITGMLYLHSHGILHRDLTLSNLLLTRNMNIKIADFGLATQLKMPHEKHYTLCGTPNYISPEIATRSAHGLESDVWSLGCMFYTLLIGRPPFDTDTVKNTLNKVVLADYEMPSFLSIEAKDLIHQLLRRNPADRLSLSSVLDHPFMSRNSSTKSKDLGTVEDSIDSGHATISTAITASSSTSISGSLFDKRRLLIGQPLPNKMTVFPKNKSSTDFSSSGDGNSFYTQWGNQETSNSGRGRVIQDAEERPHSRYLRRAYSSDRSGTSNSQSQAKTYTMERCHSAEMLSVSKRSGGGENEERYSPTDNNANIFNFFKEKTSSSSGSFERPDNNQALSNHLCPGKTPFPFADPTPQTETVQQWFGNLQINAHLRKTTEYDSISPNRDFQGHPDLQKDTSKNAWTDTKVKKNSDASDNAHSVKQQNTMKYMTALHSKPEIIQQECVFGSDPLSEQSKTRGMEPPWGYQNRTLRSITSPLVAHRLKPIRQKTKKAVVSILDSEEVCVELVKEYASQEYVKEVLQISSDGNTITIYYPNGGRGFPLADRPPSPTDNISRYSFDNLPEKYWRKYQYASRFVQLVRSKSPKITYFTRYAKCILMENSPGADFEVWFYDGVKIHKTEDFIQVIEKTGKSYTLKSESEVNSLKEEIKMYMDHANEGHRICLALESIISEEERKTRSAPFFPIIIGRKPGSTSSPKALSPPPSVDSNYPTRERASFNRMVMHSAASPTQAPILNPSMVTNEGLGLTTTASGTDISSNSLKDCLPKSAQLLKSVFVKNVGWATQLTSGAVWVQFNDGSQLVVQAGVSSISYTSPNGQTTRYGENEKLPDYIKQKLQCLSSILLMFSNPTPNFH
Description: (§2) The activity of Compounds 1, 3, 4, 6, 7, 8, 9, 10 and 13 in inhibiting CLK1, CLK4, PLK4, and FLT3 kinases was determined. Stock solutions of the compounds being evaluated were prepared. The IC50 values were determined by the Eurofins DiscoverX services using either the KinaseProfiler or the KdElect kinase activity detection assays.

Kasumi-3 = test: Cancer cytotoxicity assay (Real-Time-Glo cell viability), Kasumi-3; format: cell-based; settings: leukemia cell, 72 hr
Description: as §1

HT-29 = test: Cancer cytotoxicity assay (Real-Time-Glo cell viability), HT-29; format: cell-based; settings: Homo sapiens, colorectal cancer cell line, 72 hr
Description: as §1

FLT3 = biological target: T2, FLT3 (Homo sapiens, UniProt P36888); test: Kinase assay (Eurofins DiscoverX KinaseProfiler / KdElect), FLT3; format: binding; settings: read-out: FLT3 (Kd50 nM)
T2 construct: purchased Eurofins DiscoverX (contract service)
T2 sequence (P36888 27-993): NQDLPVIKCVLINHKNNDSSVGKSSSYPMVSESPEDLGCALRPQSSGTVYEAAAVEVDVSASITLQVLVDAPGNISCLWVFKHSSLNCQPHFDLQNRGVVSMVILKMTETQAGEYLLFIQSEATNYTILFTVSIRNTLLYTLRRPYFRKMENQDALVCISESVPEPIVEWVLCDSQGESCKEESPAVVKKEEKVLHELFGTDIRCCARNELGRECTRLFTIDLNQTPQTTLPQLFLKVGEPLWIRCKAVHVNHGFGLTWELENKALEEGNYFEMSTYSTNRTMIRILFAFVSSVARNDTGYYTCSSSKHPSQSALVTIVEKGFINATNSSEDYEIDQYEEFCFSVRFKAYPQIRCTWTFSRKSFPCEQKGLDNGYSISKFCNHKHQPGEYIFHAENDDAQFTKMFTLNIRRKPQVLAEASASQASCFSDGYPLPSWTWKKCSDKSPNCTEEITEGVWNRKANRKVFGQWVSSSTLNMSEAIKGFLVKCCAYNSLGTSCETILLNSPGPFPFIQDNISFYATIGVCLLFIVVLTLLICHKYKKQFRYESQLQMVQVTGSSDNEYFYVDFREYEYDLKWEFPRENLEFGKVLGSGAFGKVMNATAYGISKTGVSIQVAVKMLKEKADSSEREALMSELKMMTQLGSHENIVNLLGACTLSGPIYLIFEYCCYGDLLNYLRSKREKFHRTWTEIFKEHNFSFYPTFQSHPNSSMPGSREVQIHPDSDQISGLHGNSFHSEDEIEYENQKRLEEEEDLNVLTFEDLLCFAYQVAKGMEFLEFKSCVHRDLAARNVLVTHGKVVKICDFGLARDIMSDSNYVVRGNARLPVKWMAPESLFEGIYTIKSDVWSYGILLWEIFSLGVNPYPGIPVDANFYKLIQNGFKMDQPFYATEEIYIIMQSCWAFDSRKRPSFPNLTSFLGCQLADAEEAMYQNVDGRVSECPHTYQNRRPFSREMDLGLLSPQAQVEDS
Description: Stock solutions of the compounds being evaluated were prepared. The IC50 values were determined by the Eurofins DiscoverX services using either the KinaseProfiler or the KdElect kinase activity detection assays.

MV4-11 = test: Cancer cytotoxicity assay (Real-Time-Glo cell viability), MV4-11; format: cell-based; settings: Homo sapiens, leukemia cell, 72 hr
Description: as §1

OV-90 = test: Cancer cytotoxicity assay (Real-Time-Glo cell viability), OV-90; format: cell-based; settings: Homo sapiens, ovarian cancer cell line, 72 hr
Description: as §1

Kasumi-1 = test: Cancer cytotoxicity assay (Real-Time-Glo cell viability), Kasumi-1; format: cell-based; settings: Homo sapiens, leukemia cell, 72 hr
Description: as §1

CLK4 = biological target: T3, CLK4 (Homo sapiens, UniProt Q9HAZ1); test: Kinase inhibition assay (Eurofins DiscoverX KinaseProfiler / KdElect), CLK4; format: biochemical
T3 construct: purchased Eurofins DiscoverX (contract service)
Description: as §2

CLK1 = biological target: T4, CLK1 (Homo sapiens, UniProt P49759); test: Kinase inhibition assay (Eurofins DiscoverX KinaseProfiler / KdElect), CLK1; format: biochemical
T4 construct: purchased Eurofins DiscoverX (contract service)
Description: as §2

786-O = test: Cancer cytotoxicity assay (Real-Time-Glo cell viability), 786-O; format: cell-based; settings: Homo sapiens, 786-0; kidney cancer, 72 hr
Description: as §1

T4 sequence (P49759 whole entry): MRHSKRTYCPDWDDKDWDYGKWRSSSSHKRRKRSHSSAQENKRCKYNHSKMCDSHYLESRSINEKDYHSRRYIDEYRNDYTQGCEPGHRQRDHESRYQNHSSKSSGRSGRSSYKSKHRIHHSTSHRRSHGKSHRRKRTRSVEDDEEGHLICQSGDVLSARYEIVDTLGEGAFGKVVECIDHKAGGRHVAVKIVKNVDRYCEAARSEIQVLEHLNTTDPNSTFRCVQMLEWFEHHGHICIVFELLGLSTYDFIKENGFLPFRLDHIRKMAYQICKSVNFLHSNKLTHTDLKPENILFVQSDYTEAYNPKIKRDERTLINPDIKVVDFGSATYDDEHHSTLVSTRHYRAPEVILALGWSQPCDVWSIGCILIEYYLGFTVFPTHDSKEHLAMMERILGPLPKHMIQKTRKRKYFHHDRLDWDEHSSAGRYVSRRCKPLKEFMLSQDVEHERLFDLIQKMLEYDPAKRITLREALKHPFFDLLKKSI
T3 sequence (Q9HAZ1 whole entry): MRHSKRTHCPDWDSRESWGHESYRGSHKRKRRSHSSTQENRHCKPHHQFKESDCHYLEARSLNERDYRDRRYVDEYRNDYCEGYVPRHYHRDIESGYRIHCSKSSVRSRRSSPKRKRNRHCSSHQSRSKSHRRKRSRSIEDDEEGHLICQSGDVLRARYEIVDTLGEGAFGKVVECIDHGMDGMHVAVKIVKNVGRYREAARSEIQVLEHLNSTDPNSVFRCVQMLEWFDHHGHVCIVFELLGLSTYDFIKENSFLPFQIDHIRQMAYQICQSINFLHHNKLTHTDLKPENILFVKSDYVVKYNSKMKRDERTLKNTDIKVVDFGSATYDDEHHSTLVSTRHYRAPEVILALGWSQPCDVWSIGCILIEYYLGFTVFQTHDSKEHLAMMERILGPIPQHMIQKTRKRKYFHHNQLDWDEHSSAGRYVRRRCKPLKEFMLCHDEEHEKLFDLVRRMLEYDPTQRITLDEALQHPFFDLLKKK

CCc1cc(Nc2nc(N3CCC(F)(F)CC3)nc3cc(OCCCN4CCCC4)c(OC)cc23)n[nH]1 [Compound 8, 2-(4,4-difluoropiperidin-1-yl)-N-(5-ethyl-1H-pyrazol-3-yl)-6-methoxy-7-(3-(pyrrolidin-1-yl)propoxy)quinazolin-4-amine]
tumor growth compared to vehicle control (FIG. 3A) (HT-29 cells; 16 day study): significantly slower tumor growth | tumors on day 16 compared to vehicle (HT-29 cells; day 16): significantly smaller tumors | increase of tumor (FIG. 3B, tumor mass) (HT-29 cells; vehicle 600%): 370% | IC50 (HCT-116): 1000 to 5000 nM | IC50 (A-498): 1000 to 5000 nM | IC50 (SKOV-3): 1000 to 5000 nM | IC50 (PLK4): < 1000 nM | IC50 (Kasumi-3): 1000 to 5000 nM | IC50 (HT-29): 1000 to 5000 nM | Kd (FLT3): < 1 µM | IC50 (MV4-11): < 1000 nM | IC50 (OV-90): 1000 to 5000 nM | IC50 (Kasumi-1): 1000 to 5000 nM | IC50 (CLK4): < 1000 nM | IC50 (CLK1): < 1000 nM | IC50 (786-O): 1000 to 5000 nM
